In general, IC50 refers to the concentration that inhibits the measured activity by half.

Where two headings read alike, the source gives them in different places.

The record followed here is patent publication US7498353B2, “Heterocyclic anti-viral compounds comprising metabolizable moieties and their uses” (priority 2005, dated 2009).

This test relates to HCV NS5A protein in 9-13 replicon cells. Kind of test: Quantitative Western blot replicon assay (HEPC_REPLICON-ICWESTERN). The test is classed as cell-based, Hepatitis C virus (HCV). As to conditions: Hepatitis C virus, read-out: HEPC_REPLICON-ICWESTERN Result Value (IC50). How it is done:
Alternatively, the inhibitory activity of the metabolically active agents of the prodrugs can be confirmed using a quantitative Western immunoblot assay utilizing antibodies specific for HCV non-structural proteins, such as NS3, NS4A NS5A and NS5B. In one embodiment of this assay, replicon cells are treated with varying concentrations of test prodrug to determine the concentration of the metabolically active agent of the test prodrug that yields a 50% reduction in the amount of a non-structural protein produced as compared to a control sample (IC50). A single non-structural protein may be quantified or multiple non-structural proteins may be quantified. Antibodies suitable for carrying out such immunoblot assays are available commercially (e.g., from BIODESIGN International, Saco, Me.).
Certain prodrugs of the invention, which may inhibit HCV translation or replication prior to metablism and/or are metabolized into active agents, were also tested for their ability to inhibit HCV replication using a quantitative Western blot analysis with antibodies specific for the HCV NS5A or other non-structural proteins. Actively dividing 9-13 replicon cells were seeded into 6-well plates at a density of 1×10^5 cells/well in a volume of 2 ml/well and incubated at 37° C. and 5% CO2 for 24 hours. Various concentrations of test prodrugs (in a volume of 10 ul) were added to the wells and the cells incubated for another 48 hours. Protein samples were prepared from the cultured cells, resolved on a SDS-PAGE gel and transferred to a nitrocellulose membrane. The membrane was blocked with 5% non-fat milk in PBS for 1 hour at room temperature. Primary antibody (anti NS5A antibody; BIODESIGN International, Saco, Me.) incubation was performed for 1 hour at room temperature, after which the membrane was washed 3 times (for 15 min per time) with PBST (PBS plus 0.1% Tween 20). Horseradish peroxidase conjugated secondary antibody incubation was performed for 1 hour at room temperature and the membrane was washed 3 times (for 15 min per time) with PBST. The membrane was then soaked in substrate solution (Pierce) and exposed to a film or quantified using an imager. In this assay, the amount of test prodrug that is believed to be transformed into an active agent under the given conditions that yielded a 50% reduction in the amount of NS5A protein translated as compared to a control sample (IC50) was determined.
A general note: A western blot detects proteins with antibodies after separation by electrophoresis.

[1] abbreviates: 9-13 replicon cells, 50% reduction in NS5A protein.

Take `COC(=O)CCN(C(=O)C(Cl)Cl)c1cccc(-c2cc(-c3c(Cl)cccc3Cl)no2)c1` [Cpd. No. 12, Methyl 3-(2,2-Dichloro-N-(3-(3-(2,6-dichlorophenyl)isoxazol-5-yl)phenyl)acetamido)propanoate]: the half-inhibitory concentration (IC50) under setting [1] was more than 20 µM.
Same read-out and setting: the value for `CC(C)[C@@H](CN(C(=O)C(Cl)Cl)c1cccc(-c2cc(-c3c(Cl)cccc3Cl)no2)c1)NC(=O)[C@H](NC(=O)OC(C)(C)C)c1ccccc1` [Cpd. No. 23, tert-Butyl (R)-2-((S)-1-(2,2-Dichloro-N-(3-(3-(2,6-dichlorophenyl)isoxazol-5-yl)phenyl)acetamido)-3-methylbutan-2-ylamino)-2-oxo-1-phenylethylcarbamate] was 1 to 20 µM; that for `CC(C)[C@@H](CN(C(=O)C(Cl)Cl)c1cccc(-c2cc(-c3c(Cl)cccc3Cl)no2)c1)NC(=O)CN(C)C(=O)OC(C)(C)C` [Cpd. No. 25, (S)-tert-Butyl 2-(1-(2,2-Dichloro-N-(3-(3-(2,6-dichlorophenyl)isoxazol-5-yl)phenyl)acetamido)-3-methylbutan-2-ylamino)-2-oxoethyl(methyl)carbamate] was 1 to 20 µM.
For the compound `CCOP(=O)(CCC(=O)CCN(C(=O)C(Cl)Cl)c1ccnc(-c2cc(-c3c(Cl)cccc3Cl)no2)c1)OCC` [Cpd. No. 11, Diethyl 5-(2,2-Dichloro-N-(2-(3-(2,6-dichlorophenyl)isoxazol-5-yl)pyridin-4-yl)acetamido)-3-oxopentylphosphonate], the IC50 is less than 1 µM.
With `N[C@@H](CCC(=O)O)C(=O)NCCN(C(=O)C(Cl)Cl)c1cccc(-c2cc(-c3c(Cl)cccc3Cl)no2)c1` [Cpd. No. 35, (S)-4-Amino-5-(2-(2,2-dichloro-N-(3-(3-(2,6-dichlorophenyl)isoxazol-5-yl)phenyl)acetamido)ethylamino)-5-oxopentanoic Acid], the half-inhibitory concentration (IC50) under setting [1] is more than 20 µM.
On to `CNCC(=O)N[C@H](CN(C(=O)C(Cl)Cl)c1cccc(-c2cc(-c3c(Cl)cccc3Cl)no2)c1)C(C)C` [Cpd. No. 43, (S)-2,2-Dichloro-N-(3-(3-(2,6-dichlorophenyl)isoxazol-5-yl)phenyl)-N-(3-methyl-2-(2-(methylamino)acetamido)butyl)acetamide], for which the 50% inhibitory concentration (IC50) under setting [1] fell in the range of 1 to 20 µM.
Same read-out and setting: the value for `O=C(NCCN(C(=O)C(Cl)Cl)c1cccc(-c2cc(-c3c(Cl)cccc3Cl)no2)c1)[C@@H]1CC(O)CN1` (stereo partly drawn) [Cpd. No. 34, (2S)-N-(2-(2,2-Dichloro-N-(3-(3-(2,6-dichlorophenyl)isoxazol-5-yl)phenyl)acetamido)ethyl)-4-hydroxypyrrolidine-2-carboxamide] was more than 20 µM; that for `CC(C)(C)OC(=O)CC[C@H](NC(=O)OC(C)(C)C)C(=O)NCCN(C(=O)C(Cl)Cl)c1cccc(-c2cc(-c3c(Cl)cccc3Cl)no2)c1` [Cpd. No. 32, (S)-tert-Butyl 4-(tert-Butoxycarbonylamino)-5-(2-(2,2-dichloro-N-(3-(3-(2,6-dichlorophenyl)isoxazol-5-yl)phenyl)acetamido)ethylamino)-5-oxopentanoate] was more than 20 µM.
The same measure, in the same setting: the value for `CC(C)[C@@H](CN(C(=O)C(Cl)Cl)c1cccc(-c2cc(-c3c(Cl)cccc3Cl)no2)c1)NC(=O)[C@@H](N)c1ccccc1` [Cpd. No. 40, N-((S)-2-((S)-2-Amino-2-phenylacetamido)-3-methylbutyl)-2,2-dichloro-N-(3-(3-(2,6-dichlorophenyl)isoxazol-5-yl)phenyl)acetamide] was more than 20 µM; that for `CC(C)[C@@H](CN(C(=O)C(Cl)Cl)c1cccc(-c2cc(-c3c(Cl)cccc3Cl)no2)c1)NC(=O)C1CC(O)CN1` (stereo partly drawn) [Cpd. No. 42, N-((S)-1-(2,2-Dichloro-N-(3-(3-(2,6-dichlorophenyl)isoxazol-5-yl)phenyl)acetamido)-3-methylbutan-2-yl)-4-hydroxypyrrolidine-2-carboxamide] was more than 20 µM; that for `CC(C)[C@@H](CN(C(=O)C(Cl)Cl)c1cccc(-c2cc(-c3c(Cl)cccc3Cl)no2)c1)NC(=O)OC(C)(C)C` [Cpd. No. 21, (S)-tert-Butyl 1-(2,2-Dichloro-N-(3-(3-(2,6-dichlorophenyl)isoxazol-5-yl)phenyl)acetamido)-3-methylbutan-2-ylcarbamate] was 1 to 20 µM.
Consider `CC(C)[C@@H](CN(C(=O)C(Cl)Cl)c1cccc(-c2cc(-c3c(Cl)cccc3Cl)no2)c1)NC(=O)C1CC(O)CN1C(=O)OC(C)(C)C` (stereo partly drawn) [Cpd. No. 24, tert-Butyl 2-((S)-1-(2,2-Dichloro-N-(3-(3-(2,6-dichlorophenyl)isoxazol-5-yl)phenyl)acetamido)-3-methylbutan-2-ylcarbamoyl)-4-hydroxypyrrolidine-1-carboxylate], for which the IC50 under setting [1] was 1 to 20 µM.
`CC[C@H](C)[C@H](N)C(=O)NCCN(C(=O)C(Cl)Cl)c1cccc(-c2cc(-c3c(Cl)cccc3Cl)no2)c1` [Cpd. No. 38, (2S,3S)-2-Amino-N-(2-(2,2-dichloro-N-(3-(3-(2,6-dichlorophenyl)isoxazol-5-yl)phenyl)acetamido)ethyl)-3-methylpentanamide]: the IC50 under setting [1] was in the range of 1 to 20 µM.
As to `CC(C)[C@H](N)C(=O)NCCN(C(=O)C(Cl)Cl)c1cccc(-c2cc(-c3c(Cl)cccc3Cl)no2)c1` [Cpd. No. 37, (S)-2-Amino-N-(2-(2,2-dichloro-N-(3-(3-(2,6-dichlorophenyl)isoxazol-5-yl)phenyl)acetamido)ethyl)-3-methylbutanamide], the IC50 under setting [1] lay in the range of 1 to 20 µM.
Still for that read-out and setting: next, `CC(C)(C)OC(=O)NCCN(C(=O)C(Cl)Cl)c1cccc(-c2cc(-c3c(Cl)cccc3Cl)no2)c1` [Cpd. No. 14, tert-Butyl 2-(2,2-Dichloro-N-(3-(3-(2,6-dichlorophenyl)isoxazol-5-yl)phenyl)acetamido)ethylcarbamate]: more than 20 µM; `CCOC(=O)CN(C(=O)C(Cl)Cl)c1ccnc(-c2cc(-c3c(Cl)cccc3Cl)no2)c1` [Cpd. No. 8, Ethyl 2-(2,2-Dichloro-N-(2-(3-(2,6-dichlorophenyl)isoxazol-5-yl)pyridin-4-yl)acetamido)acetate]: 1 to 20 µM.
In the case of `N[C@@H](C(=O)NCCN(C(=O)C(Cl)Cl)c1cccc(-c2cc(-c3c(Cl)cccc3Cl)no2)c1)c1ccccc1` [Cpd. No. 20, (R)-N-(2-(2-Amino-2-phenylacetamido)ethyl)-2,2-dichloro-N-(3-(3-(2,6-dichlorophenyl)isoxazol-5-yl)phenyl)acetamide], the 50% inhibitory concentration (IC50) under setting [1] fell in the range of 1 to 20 µM.
As for `CC(C)(C)OC(=O)N1CC(O)C[C@H]1C(=O)NCCN(C(=O)C(Cl)Cl)c1cccc(-c2cc(-c3c(Cl)cccc3Cl)no2)c1` (stereo partly drawn) [Cpd. No. 33, (2S)-tert-Butyl 2-(2-(2,2-Dichloro-N-(3-(3-(2,6-dichlorophenyl)isoxazol-5-yl)phenyl)acetamido)ethylcarbamoyl)-4-hydroxypyrrolidine-1-carboxylate], under setting [1], the IC50 is more than 20 µM.
Same read-out and setting: the value for `CC(C)[C@H](N)CN(C(=O)C(Cl)Cl)c1cccc(-c2cc(-c3c(Cl)cccc3Cl)no2)c1` [Cpd. No. 39, (S)-N-(2-Amino-3-methylbutyl)-2,2-dichloro-N-(3-(3-(2,6-dichlorophenyl)isoxazol-5-yl)phenyl)acetamide] was 1 to 20 µM; that for `CC(C)[C@@H](CN(C(=O)C(Cl)Cl)c1cccc(-c2cc(-c3c(Cl)cccc3Cl)no2)c1)NC(=O)[C@H](CCC(=O)OC(C)(C)C)NC(=O)OC(C)(C)C` [Cpd. No. 26, (S)-tert-Butyl 4-(tert-Butoxycarbonylamino)-5-((S)-1-(2,2-dichloro-N-(3-(3-(2,6-dichlorophenyl)isoxazol-5-yl)phenyl)acetamido)-3-methylbutan-2-ylamino)-5-oxopentanoate] was 1 to 20 µM.
